Assay results reported in ChEMBL document CHEMBL3112450, “Synthesis and in vitro antitumor evaluation of primary amine substituted quinazoline linked benzimidazole” (Bioorg Med Chem Lett, 2014).

Assays:
Format in all cases: functional
CCRF-CEM = test: Cytotoxicity against human CCRF-CEM cells assessed as cell growth at 10^-5 M after 48 hrs by SRB assay; settings: read-out: Activity
SK-MEL-2 = test: Cytotoxicity against human SK-MEL-2 cells assessed as cell growth at 10^-5 M after 48 hrs by SRB assay; settings: SK-MEL-2, 48 h, read-out: Activity
SF-295 = test: Cytotoxicity against human SF295 cells assessed as cell growth at 10^-5 M after 48 hrs by SRB assay; settings: SF-295, 48 h, read-out: Activity
K562 = test: Cytotoxicity against human K562 cells assessed as cell growth at 10^-5 M after 48 hrs by SRB assay; settings: K562, 48 h, read-out: Activity
[1] = Cytotoxicity against human OVCAR5 cells assessed as cell growth at 10^-5 M after 48 hrs by SRB assay; settings: OVCAR-5, 48 h, read-out: Activity
BT-549 = test: Cytotoxicity against human BT549 cells assessed as cell growth at 10^-5 M after 48 hrs by SRB assay; settings: BT-549, 48 h, read-out: Activity
NCI-H522 = test: Cytotoxicity against human NCI-H522 cells assessed as cell growth at 10^-5 M after 48 hrs by SRB assay; settings: NCI-H522, 48 h, read-out: Activity
A498 = test: Cytotoxicity against human A498 cells assessed as cell growth at 10^-5 M after 48 hrs by SRB assay; settings: A498, 48 h, read-out: Activity
SK-OV-3 = test: Cytotoxicity against human SKOV3 cells assessed as cell growth at 10^-5 M after 48 hrs by SRB assay; settings: SK-OV-3, 48 h, read-out: Activity
[2] = Cytotoxicity against human NCI-ADR-RES cells assessed as cell growth at 10^-5 M after 48 hrs by SRB assay; settings: read-out: Activity
MDA-MB-435 = test: Cytotoxicity against human MDA-MB-435 cells assessed as cell growth at 10^-5 M after 48 hrs by SRB assay; settings: MDA-MB-435, 48 h, read-out: Activity
HOP-92 = test: Cytotoxicity against human HOP92 cells assessed as cell growth at 10^-5 M after 48 hrs by SRB assay; settings: HOP-92, 48 h, read-out: Activity
SNB-75 = test: Cytotoxicity against human SNB75 cells assessed as cell growth at 10^-5 M after 48 hrs by SRB assay; settings: SNB-75, 48 h, read-out: Activity
A549 = test: Cytotoxicity against human A549 cells assessed as cell growth at 10^-5 M after 48 hrs by SRB assay; settings: A549, 48 h, read-out: Activity
MDA-MB-468 = test: Cytotoxicity against human MDA-MB-468 cells assessed as cell growth at 10^-5 M after 48 hrs by SRB assay; settings: MDA-MB-468, 48 h, read-out: Activity
LOX IMVI = test: Cytotoxicity against human LOXIMVI cells assessed as cell growth at 10^-5 M after 48 hrs by SRB assay; settings: read-out: Activity
ACHN = test: Cytotoxicity against human ACHN cells assessed as cell growth at 10^-5 M after 48 hrs by SRB assay; settings: read-out: Activity
[3] = Cytotoxicity against human UO31 cells assessed as cell growth at 10^-5 M after 48 hrs by SRB assay; settings: UO-31, 48 h, read-out: Activity
SNB-19 = test: Cytotoxicity against human SNB19 cells assessed as cell growth at 10^-5 M after 48 hrs by SRB assay; settings: SNB-19, 48 h, read-out: Activity
OVCAR-8 = test: Cytotoxicity against human OVCAR8 cells assessed as cell growth at 10^-5 M after 48 hrs by SRB assay; settings: OVCAR-8, 48 h, read-out: Activity
TK-10 = test: Cytotoxicity against human TK10 cells assessed as cell growth at 10^-5 M after 48 hrs by SRB assay; settings: TK-10, 48 h, read-out: Activity
MDA-MB-231 = test: Cytotoxicity against human MDA-MB-231 cells assessed as cell growth at 10^-5 M after 48 hrs by SRB assay; settings: MDA-MB-231, 48 h, read-out: Activity
COLO 205 = test: Cytotoxicity against human COLO205 cells assessed as cell growth at 10^-5 M after 48 hrs by SRB assay; settings: COLO 205, 48 h, read-out: Activity
Malme-3M = test: Cytotoxicity against human MALME-3M cells assessed as cell growth at 10^-5 M after 48 hrs by SRB assay; settings: read-out: Activity
NCI-H460 = test: Cytotoxicity against human NCI-H460 cells assessed as cell growth at 10^-5 M after 48 hrs by SRB assay; settings: NCI-H460, 48 h, read-out: Activity
HOP-62 = test: Cytotoxicity against human HOP62 cells assessed as cell growth at 10^-5 M after 48 hrs by SRB assay; settings: HOP-62, 48 h, read-out: Activity
RPMI-8226 = test: Cytotoxicity against human RPMI8226 cells assessed as cell growth at 10^-5 M after 48 hrs by SRB assay; settings: RPMI-8226, 48 h, read-out: Activity
SF-268 = test: Cytotoxicity against human SF268 cells assessed as cell growth at 10^-5 M after 48 hrs by SRB assay; settings: SF-268, 48 h, read-out: Activity
MOLT-4 = test: Cytotoxicity against human MOLT4 cells assessed as cell growth at 10^-5 M after 48 hrs by SRB assay; settings: MOLT-4, 48 h, read-out: Activity
HCT-116 = test: Cytotoxicity against human HCT116 cells assessed as cell growth at 10^-5 M after 48 hrs by SRB assay; settings: HCT-116, 48 h, read-out: Activity
T47D = test: Cytotoxicity against human T47D cells assessed as cell growth at 10^-5 M after 48 hrs by SRB assay; settings: read-out: Activity
MCF7 = test: Cytotoxicity against human MCF7 cells assessed as cell growth at 10^-5 M after 48 hrs by SRB assay; settings: MCF7, 48 h, read-out: Activity
HCC 2998 = test: Cytotoxicity against human HCC2998 cells assessed as cell growth at 10^-5 M after 48 hrs by SRB assay; settings: HCC 2998, 48 h, read-out: Activity
SW-620 = test: Cytotoxicity against human SW620 cells assessed as cell growth at 10^-5 M after 48 hrs by SRB assay; settings: SW-620, 48 h, read-out: Activity
UACC-62 = test: Cytotoxicity against human UACC62 cells assessed as cell growth at 10^-5 M after 48 hrs by SRB assay; settings: UACC-62, 48 h, read-out: Activity
786-0 = test: Cytotoxicity against human 786-0 cells assessed as cell growth at 10^-5 M after 48 hrs by SRB assay; settings: 786-0, 48 h, read-out: Activity
NCI-H226 = test: Cytotoxicity against human NCI-H226 cells assessed as cell growth at 10^-5 M after 48 hrs by SRB assay; settings: NCI-H226, 48 h, read-out: Activity

SMILES	growth at 10 µM (CCRF-CEM) [%]	growth at 10 µM (SK-MEL-2) [%]	growth at 10 µM (SF-295) [%]	growth at 10 µM (K562) [%]	growth at 10 µM [1] [%]	growth at 10 µM (BT-549) [%]	growth at 10 µM (NCI-H522) [%]	growth at 10 µM (A498) [%]	growth at 10 µM (SK-OV-3) [%]	growth at 10 µM [2] [%]	growth at 10 µM (MDA-MB-435) [%]	growth at 10 µM (HOP-92) [%]	growth at 10 µM (SNB-75) [%]	growth at 10 µM (A549) [%]	growth at 10 µM (MDA-MB-468) [%]	growth at 10 µM (LOX IMVI) [%]	growth at 10 µM (ACHN) [%]	growth at 10 µM [3] [%]	growth at 10 µM (SNB-19) [%]	growth at 10 µM (OVCAR-8) [%]	also measured
C=CCn1c(C)nc2ccc(Nc3nc(Nc4ncccn4)nc4ccccc34)cc21	84.8	100	86.9	83	114	82.8	98.1	76.8	104	103	107	70.5	78.8	90.3	78.3	85.3	103	82.1	97.6	94.3	growth at 10 µM (TK-10): 118%; growth at 10 µM (MDA-MB-231): 84.4%; growth at 10 µM (COLO 205): 102%; growth at 10 µM (Malme-3M): 99%; growth at 10 µM (NCI-H460): 97.8%; growth at 10 µM (HOP-62): 84.8%; growth at 10 µM (RPMI-8226): 70.7%; growth at 10 µM (SF-268): 94.8%; growth at 10 µM (MOLT-4): 97.2%; growth at 10 µM (HCT-116): 94.2%; growth at 10 µM (T47D): 55.8%; growth at 10 µM (MCF7): 82.4%; growth at 10 µM (HCC 2998): 106%; growth at 10 µM (SW-620): 100%; growth at 10 µM (UACC-62): 92.6%; growth at 10 µM (786-0): 106%; growth at 10 µM (NCI-H226): 92.2%
C=CCn1c(C)nc2ccc(Nc3nc(NCCO)nc4ccccc34)cc21	88.5	127	146	92.2	107	96.5	101	78.3	109	106	102	73.9	92.5	99.9	119	88.5	104	92.6	93.9	99	growth at 10 µM (TK-10): 124%; growth at 10 µM (MDA-MB-231): 84.5%; growth at 10 µM (COLO 205): 106%; growth at 10 µM (Malme-3M): 111%; growth at 10 µM (NCI-H460): 103%; growth at 10 µM (HOP-62): 97.6%; growth at 10 µM (RPMI-8226): 95.7%; growth at 10 µM (SF-268): 92.5%; growth at 10 µM (MOLT-4): 96.7%; growth at 10 µM (HCT-116): 94.7%; growth at 10 µM (T47D): 95.8%; growth at 10 µM (MCF7): 93.7%; growth at 10 µM (HCC 2998): 110%; growth at 10 µM (SW-620): 97.7%; growth at 10 µM (UACC-62): 92.7%; growth at 10 µM (786-0): 95.7%; growth at 10 µM (NCI-H226): 107%
C=CCn1c(C)nc2ccc(Nc3nc(Sc4ccc(N)cc4)nc4ccccc34)cc21	65.5	109	77.1	92.5	118	87.9	89.5	48.5	124	97.8	96.9	61.1	98.2	89.8	106	97	101	89.5	93.2	63.7	growth at 10 µM (TK-10): 107%; growth at 10 µM (MDA-MB-231): 80.5%; growth at 10 µM (COLO 205): 121%; growth at 10 µM (Malme-3M): 123%; growth at 10 µM (NCI-H460): 104%; growth at 10 µM (HOP-62): 104%; growth at 10 µM (RPMI-8226): 59.8%; growth at 10 µM (SF-268): 109%; growth at 10 µM (MOLT-4): 88.2%; growth at 10 µM (HCT-116): 93.2%; growth at 10 µM (T47D): 71.7%; growth at 10 µM (MCF7): 93.2%; growth at 10 µM (HCC 2998): 103%; growth at 10 µM (SW-620): 108%; growth at 10 µM (UACC-62): 83.1%; growth at 10 µM (786-0): 102%; growth at 10 µM (NCI-H226): 109%
